Assay [1] concerns the target T1, AMPK α1β1γ1 and α2β1γ1 (Homo sapiens, UniProt P54619+P54646+Q9Y478).
T1 construct: made in house; host or cells: Sf9 insect cells (baculovirus)
As to the kind of experiment: Summary statements across all assay formats (radiometric, TR-FRET, FRET, CHEF). The assay is classed as biochemical. As to conditions: α2β1γ1 isoform. The procedure: (§1) Kinase reactions were performed at room temperature in 50 mM HEPES pH 7.5, 0.01% BRIJ-35, 10 mM MgCl2, and 1 mM EGTA in a 30 µL assay volume in 96-well plates. For the inhibition experiments, a 2-fold dilution series of inhibitor stock solutions was first prepared in 100% DMSO at 100-fold concentration of inhibitor to be used in the assay. Prior to the assay, 4 µL of each inhibitor concentration was further diluted to 100 µL in assay buffer to prepare a working stock of inhibitor in 4% DMSO at 4-fold the final assay concentration. For the activation experiments, activators were prepared in 100% H2O at 4-fold the concentration to be tested in the assay. Assays were performed as follows: 7.5 µL of the inhibitor or activator working stock was added to a 17.5 µL solution of assay buffer, substrate and [^32P]-ATP (0.5 µCi/well), followed by 5 µL of enzyme to start the assay. All assays were performed in triplicate. The final concentration of SAMS peptide substrate in the reaction was 200 µM. AMPK α1β1γ1 was used at 334 ng/mL (1.8 nM) in the inhibition experiments and 83.3 ng/mL (0.44 nM) in the activation experiments, at an ATP concentration of 35 µM. AMPK α2β1γ1 was used at 1670 ng/mL (8.9 nM) in the inhibition experiments and 267 ng/mL (1.4 nM) in the activation experiments, at an ATP concentration of 65 µM. After 10 minutes, 20 µL of the reaction was spotted onto a p81 filter. The filters were washed three times in 0.5% phosphoric acid, and twice in distilled water before being counted in Beckman Coulter Ready Safe liquid scintillation cocktail using a Beckman Coulter LS6500 Multipurpose Scintillation Counter. Scintillation Counter output (cpm) was used to calculate specific activity (nmole / (min•mg)).
(§2) Kinase reactions were performed in a 10 µL assay volume at room temperature in 384-well low volume plates (Corning model 3676) using the same assay buffer as the radiometric assay. Activators and inhibitors were prepared as described for the radiometric assay. Assays were performed as follows: 2.5 µL of the inhibitor or activator working stock was added to a 5 µL solution of kinase and substrate, followed by 2.5 µL of ATP to start the assay. Assays were performed in quadruplicate. The final concentration of fluorescein-labeled CREBtide peptide substrate (derived from residues 123-136 of CREB protein) in the reaction was 400 nM. AMPK α1β1γ1 was used at 600 ng/mL (3.1 nM) in the inhibition experiments and 200 ng/mL (1.1 nM) in the activation experiments, at an ATP concentration of 50 µM. AMPK α2β1γ1 was used at 5 µg/mL (26.5 nM) in the inhibition experiments and 600 ng/mL (3.2 nM) in the activation experiments, at an ATP concentration of 150 µM. After one hour, a 10 µL solution of EDTA and terbium labeled phospho-specific antibody in 20 mM Tris, pH 7.5 and 0.01% NP-40 was added to a final well volume of 20 µL, a final antibody concentration of 1 nM, and a final EDTA concentration of 10 mM. After a 30 minute incubation at room temperature the assay plate was read on a BMG Pherastar plate reader using the LanthaScreen™ filter module. The TR-FRET ratio was calculated as the intensity of the acceptor signal divided by the intensity of the donor signal.
(§3) Kinase reactions were performed in a 10 µL assay volume at room temperature in 384-well low volume plates (Corning model 3676) using the same assay buffer as the radiometric assay. Inhibitors and activators were prepared as described for the radiometric assays. Assays were performed as follows: 2.5 µL of the inhibitor or activator working stock was added to a 5 µL solution of kinase and substrate, followed by 2.5 µL of ATP to start the assay. All assays were performed in quadruplicate. The final concentration of Z’-LYTE™ S/T23 peptide substrate in the reaction was 2 µM. AMPK α1β1γ1 was used at 79 ng/mL (0.42 nM) in the inhibition experiments and 41 ng/mL (0.22 nM) in the activation experiments, at an ATP concentration of 50 µM. […]
For orientation: TR-FRET usually uses a lanthanide donor and a delayed reading to cut background.

Assay [2] has as its target AMPK α1β1γ1 and α2β1γ1 (Homo sapiens, UniProt P54619+P54646). The assay is described as above. It is filed as biochemical. To be noted: read-out: half-maximal stimulatory concentration; all assay formats. On the procedure:
as §1, §2, §3

Assay [3] deals with T2, AMPK α1β1γ1 and α2β1γ1 (Homo sapiens, UniProt P54619+Q13131+Q9Y478).
T2 construct: made in house; host or cells: Sf9 insect cells (baculovirus)
The assay is described as above. It is filed as biochemical. To be noted: α1β1γ1 isoform, any formats. On the procedure: as §1, §2, §3

The target in assay [4] is T3, AMPK α2β1γ1 (Homo sapiens, UniProt P54619+P54646).
T3 construct: made in house; host or cells: Sf9 insect cells (baculovirus)
Description: TR-FRET activity assay (LanthaScreen, fluorescein-CREBtide). The assay is classed as biochemical. As to conditions: TR-FRET, ATP 150 µM, substrate 400 nM; read-out: Activator EC50. The procedure: (§4) Activators and inhibitors were prepared as described for the radiometric assay. Assays were performed as follows: 2.5 µL of the inhibitor or activator working stock was added to a 5 µL solution of kinase and substrate, followed by 2.5 µL of ATP to start the assay. Assays were performed in quadruplicate. […] After one hour, a 10 µL solution of EDTA and terbium labeled phospho-specific antibody in 20 mM Tris, pH 7.5 and 0.01% NP-40 was added to a final well volume of 20 µL, a final antibody concentration of 1 nM, and a final EDTA concentration of 10 mM. After a 30 minute incubation at room temperature the assay plate was read on a BMG Pherastar plate reader using the LanthaScreen™ filter module. The TR-FRET ratio was calculated as the intensity of the acceptor signal divided by the intensity of the donor signal.
(§5) Data analysis and curve-fitting was performed using GraphPad Prism software (GraphPad Software, Inc, San Diego CA).

The next assay addresses T4, AMPK α1β1γ1 (Homo sapiens, UniProt P54619+Q13131).
T4 construct: made in house; host or cells: Sf9 insect cells (baculovirus)
The description is as above. To be noted: ATP 50 µM, substrate 400 nM, read-out: Activator EC50. The assay is classed as biochemical. On the procedure: as §4, §5

Assay [5] deals with T3, AMPK α2β1γ1. Description: Radiometric kinase assay (SAMS peptide, 32P-ATP). The assay is classed as biochemical. On the procedure: as §1, §5
For assay [6], the system named is partially purified rat AMPK. Set-up: method as in PMID 8185610. To be noted: cited from earlier work.
The subject of assay [7] is partially purified human AMPK. Also noted: method as in PMID 8185610. To be noted: cited from earlier work.
Assay [8] concerns rat-liver or recombinant AMPK (α1β1γ1). Set-up: method as in PMID 16753576. As to conditions: read-out: EC50 of AMPK activation; cited from earlier work.

The text below walks through data of publication PMC2774621, “Homogenous Fluorescent Assays for Characterizing Small-Molecule Activators of AMP-Activated Protein Kinase (AMPK)” (Current Chemical Genomics, 2008).

The structures appear in SMILES notation.

T3 sequence (P54646 whole entry): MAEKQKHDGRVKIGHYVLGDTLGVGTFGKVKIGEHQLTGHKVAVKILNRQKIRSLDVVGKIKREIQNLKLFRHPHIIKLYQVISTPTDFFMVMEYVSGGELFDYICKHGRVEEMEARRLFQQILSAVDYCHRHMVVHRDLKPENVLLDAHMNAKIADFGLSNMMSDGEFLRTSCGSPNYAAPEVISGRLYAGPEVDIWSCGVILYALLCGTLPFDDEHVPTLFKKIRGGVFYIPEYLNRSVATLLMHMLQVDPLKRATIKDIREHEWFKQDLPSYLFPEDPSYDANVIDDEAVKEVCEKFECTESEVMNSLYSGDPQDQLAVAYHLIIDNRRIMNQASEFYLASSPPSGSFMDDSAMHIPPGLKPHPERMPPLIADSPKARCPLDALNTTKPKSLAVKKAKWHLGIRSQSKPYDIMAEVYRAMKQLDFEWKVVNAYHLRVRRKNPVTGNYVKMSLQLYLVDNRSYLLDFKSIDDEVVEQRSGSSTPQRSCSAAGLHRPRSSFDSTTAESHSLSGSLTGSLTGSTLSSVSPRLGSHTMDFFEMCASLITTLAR
T3 sequence (Q9Y478 whole entry partner): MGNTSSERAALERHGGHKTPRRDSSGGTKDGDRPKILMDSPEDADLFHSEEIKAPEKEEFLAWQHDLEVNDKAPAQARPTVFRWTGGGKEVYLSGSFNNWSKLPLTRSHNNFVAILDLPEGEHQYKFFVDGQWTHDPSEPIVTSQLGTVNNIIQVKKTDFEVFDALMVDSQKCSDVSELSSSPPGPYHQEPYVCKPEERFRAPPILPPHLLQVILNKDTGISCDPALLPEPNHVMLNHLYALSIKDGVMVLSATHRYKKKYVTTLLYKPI
T3 sequence (P54619 whole entry): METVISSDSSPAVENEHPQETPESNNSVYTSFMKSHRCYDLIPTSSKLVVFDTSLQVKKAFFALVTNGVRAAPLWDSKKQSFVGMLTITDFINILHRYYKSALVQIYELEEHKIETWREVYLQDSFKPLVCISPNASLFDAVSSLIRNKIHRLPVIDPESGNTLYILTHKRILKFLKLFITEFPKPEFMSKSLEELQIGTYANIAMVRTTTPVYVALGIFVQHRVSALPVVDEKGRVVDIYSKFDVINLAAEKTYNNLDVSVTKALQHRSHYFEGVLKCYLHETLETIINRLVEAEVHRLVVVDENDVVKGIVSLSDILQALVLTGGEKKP
Chain of AMPK α1β1γ1 and α2β1γ1 (Homo sapiens, UniProt P54619+P54646) (P54619 whole entry): as above
Chain of AMPK α1β1γ1 and α2β1γ1 (Homo sapiens, UniProt P54619+P54646) (P54646 whole entry): as the sequence (P54646 whole entry) above
Chain of AMPK α1β1γ1 and α2β1γ1 (Homo sapiens, UniProt P54619+P54646) (Q9Y478 whole entry partner): as the sequence (Q9Y478 whole entry partner) above
T1 sequence (P54646 whole entry): as the sequence (P54646 whole entry) above
T1 sequence (Q9Y478 whole entry): as the sequence (Q9Y478 whole entry partner) above
T1 sequence (P54619 whole entry): as the sequence (P54619 whole entry) above
T2 sequence (Q13131 whole entry): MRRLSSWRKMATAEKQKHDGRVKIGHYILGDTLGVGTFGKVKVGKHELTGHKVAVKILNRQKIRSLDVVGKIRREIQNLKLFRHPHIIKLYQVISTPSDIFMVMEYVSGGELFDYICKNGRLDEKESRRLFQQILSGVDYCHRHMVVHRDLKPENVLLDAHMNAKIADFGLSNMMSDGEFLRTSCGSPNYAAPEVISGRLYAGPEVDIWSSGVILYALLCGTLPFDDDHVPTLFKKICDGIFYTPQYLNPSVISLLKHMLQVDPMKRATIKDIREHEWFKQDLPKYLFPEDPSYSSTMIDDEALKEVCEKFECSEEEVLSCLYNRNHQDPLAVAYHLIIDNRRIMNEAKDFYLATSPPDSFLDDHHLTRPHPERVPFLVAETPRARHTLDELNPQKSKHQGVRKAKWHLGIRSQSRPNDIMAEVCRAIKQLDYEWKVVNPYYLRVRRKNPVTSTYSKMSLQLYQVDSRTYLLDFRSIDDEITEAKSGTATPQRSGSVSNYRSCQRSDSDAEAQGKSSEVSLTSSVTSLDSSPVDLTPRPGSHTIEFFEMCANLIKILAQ
T2 sequence (Q9Y478 whole entry): as the sequence (Q9Y478 whole entry partner) above
T2 sequence (P54619 whole entry): as the sequence (P54619 whole entry) above
T4 sequence (Q13131 whole entry): as the sequence (Q13131 whole entry) above
T4 sequence (Q9Y478 whole entry partner): as the sequence (Q9Y478 whole entry partner) above
T4 sequence (P54619 whole entry): as the sequence (P54619 whole entry) above

Regarding `Nc1ncnc2c1ncn2[C@@H]1O[C@H](COP(N)(=O)O)[C@@H](O)[C@H]1O` [APR, adenosine 5′-monophosphoramidate], at AMPK α1β1γ1 and α2β1γ1 [1], the “maximal extent of activation” value was 2 to 3 fold. The EC50 is greater than 50 µM on AMPK α1β1γ1 and α2β1γ1 [2]; 43 µM on AMPK α2β1γ1 [4]; 722 µM on AMPK α1β1γ1; 194 µM at AMPK α2β1γ1 [5]; 1.9 µM in assay [6] (rat AMPK, read-out: half-maximal stimulatory concentration). Also, the “activation before inhibiting kinase activity to below basal levels” value at AMPK α1β1γ1 and α2β1γ1 [3] is given as “negligible activation”. At AMPK α2β1γ1 [5] (radiometric, ATP 65 µM, SAMS 200 µM), this compound displayed a Max. fold-activation of 1.9 fold. Moreover, the “fold stimulation (maximal extent of activation)” value in assay [6] (partially purified rat AMPK) is 1.5 fold; in assay [7], 2.25 fold.
`N#Cc1c(O)c2c(-c3ccc(-c4ccccc4O)cc3)csc2[nH]c1=O` [A-769662]: the EC50 in assay [8] is roughly 0.8 µM.
